Experiments:
Format in all cases: functional
Eimeria tenella [1] = test: Anticococcidal activity against Eimeria tenella in Chick assessed as reduction in lesion at 8 ug/ml relative to control; set-up: scale not given: the % may be the effect or the level left
Eimeria tenella [2] = test: Anticococcidal activity against Eimeria tenella in Chick assessed as reduction in lesion at 2 ug/ml relative to control; set-up: scale not given: the % may be the effect or the level left
Gallus gallus [3] = species on record: Gallus gallus; test: Increase in weight of Eimeria tenella infected Chick at 8 ug/ml relative to control
Gallus gallus [4] = species on record: Gallus gallus; test: Increase in weight of Eimeria tenella infected Chick at 4 ug/ml relative to control
Eimeria tenella [5] = test: Anticococcidal activity against Eimeria tenella in Chick assessed as reduction in lesion at 4 ug/ml relative to control; set-up: scale not given: the % may be the effect or the level left
Gallus gallus [6] = species on record: Gallus gallus; test: Increase in weight of Eimeria tenella infected Chick at 2 ug/ml relative to control
Eimeria tenella [7] = test: Anticococcidal activity against Eimeria tenella in Chick assessed as reduction in lesion at 125 ug/ml relative to control; set-up: scale not given: the % may be the effect or the level left
Gallus gallus [8] = species on record: Gallus gallus; test: Increase in weight of Eimeria tenella infected Chick at 125 ug/ml relative to control

SMILES	Activity (Eimeria tenella [1]) [%]	Activity (Eimeria tenella [2]) [%]	Activity (Gallus gallus [3]) [%]	Activity (Gallus gallus [4]) [%]	Activity (Eimeria tenella [5]) [%]	Activity (Gallus gallus [6]) [%]	Activity (Eimeria tenella [7]) [%]	Activity (Gallus gallus [8]) [%]
O=[N+]([O-])/C=C/c1ccco1	72.86	58.57	83.86	86.78	67.14	80.08		
CCCc1ncc(C[n+]2ccccc2C)c(N)n1.Cl.[Cl-] [AMPROLIUM]							60	75.19
